Where two headings read alike, the source gives them in different places. Square brackets hold non-standard residues; d marks the D form. Peptide text beside a SMILES is read from it. pY = N[C@@H](Cc1ccc(OP(=O)(O)O)cc1)C(=O)O; pS = N[C@@H](COP(=O)(O)O)C(=O)O
B1: PKC-ζ: recombinant human protein kinase C-ζ, obtained from Calbiochem (protein)
chain: MPSRTGPKMEGSGGRVRLKAHYGGDIFITSVDAATTFEELCEEVRDMCRLHQQHPLTLKWVDSEGDPCTVSSQMELEEAFRLARQCRDEGLIIHVFPSTPEQPGLPCPGEDKSIYRRGARRWRKLYRANGHLFQAKRFNRRAYCGQCSERIWGLARQGYRCINCKLLVHKRCHGLVPLTCRKHMDSVMPSQEPPVDDKNEDADLPSEETDGIAYISSSRKHDSIKDDSEDLKPVIDGMDGIKISQGLGLQDFDLIRVIGRGSYAKVLLVRLKKNDQIYAMKVVKKELVHDDEDIDWVQTEKHVFEQASSNPFLVGLHSCFQTTSRLFLVIEYVNGGDLMFHMQRQRKLPEEHARFYAAEICIALNFLHERGIIYRDLKLDNVLLDADGHIKLTDYGMCKEGLGPGDTTSTFCGTPNYIAPEILRGEEYGFSVDWWALGVLMFEMMAGRSPFDIITDNPDMNTEDYLFQVILEKPIRIPRFLSVKASHVLKGFLNKDPKERLGCRPQTGFSDIKSHAFFRSIDWDLLEKKQALPPFQPQITDDYGLDNFDTQFTSEPVQLTPDDEDAIKRIDQSEFEGFEYINPLLLSTEESV

Tests used:
p85α [1] = target: T1, p85α (Bos taurus, UniProt P23727); experiment: Surface plasmon resonance competition assay: binding of 100 nM p85α to immobilized IRS-1 peptides in the presence of competing soluble peptide; parameters: species or system bovine; conditions: SPR response at equilibrium 440 s after injection, competitor identical to immobilized peptide
T1 construct: GST (N, cleaved yes); made in house; host or cells: Escherichia coli BL21
T1 sequence (P23727 whole entry): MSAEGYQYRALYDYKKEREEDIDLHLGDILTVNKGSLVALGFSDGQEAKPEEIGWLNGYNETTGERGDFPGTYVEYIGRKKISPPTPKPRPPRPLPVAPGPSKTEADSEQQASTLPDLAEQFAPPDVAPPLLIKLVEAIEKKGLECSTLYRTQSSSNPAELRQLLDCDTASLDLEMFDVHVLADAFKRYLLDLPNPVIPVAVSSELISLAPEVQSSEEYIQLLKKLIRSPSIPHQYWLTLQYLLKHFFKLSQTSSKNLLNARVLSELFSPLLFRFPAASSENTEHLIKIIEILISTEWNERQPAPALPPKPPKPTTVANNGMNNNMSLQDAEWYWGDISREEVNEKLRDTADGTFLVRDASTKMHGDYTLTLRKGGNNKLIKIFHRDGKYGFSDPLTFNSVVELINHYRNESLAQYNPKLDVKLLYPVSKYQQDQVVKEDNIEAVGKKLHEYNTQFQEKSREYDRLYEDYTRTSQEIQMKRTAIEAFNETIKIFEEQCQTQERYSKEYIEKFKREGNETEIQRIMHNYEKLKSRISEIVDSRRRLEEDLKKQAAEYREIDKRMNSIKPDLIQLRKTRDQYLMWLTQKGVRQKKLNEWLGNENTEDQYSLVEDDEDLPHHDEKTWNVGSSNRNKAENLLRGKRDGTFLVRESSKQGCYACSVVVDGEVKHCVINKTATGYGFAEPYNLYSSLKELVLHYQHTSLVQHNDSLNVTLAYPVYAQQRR
Protocol: The principle of operation of the BIAcore™ biosensor (Biacore, Freiburg, Germany) has been described previously (42). To avoid the interfering dimerization of the GST part of the fusion protein, it was cleaved with thrombin during the purification. Because of the known extremely fast association rates of SH2-domains to phosphopeptides the relative affinities were assessed by competition assay (43). Therefore, a constant concentration of p85α (100 nM) was incubated in running buffer (0.01 M Hepes pH 7.4, 0.15 M NaCl, 3 mM EDTA, 0.005% Surfactant P20 (HBS-EP)) with a variable concentration of the competitor peptide (50 nM-10 μM), which was identical to that bound on the CM5 sensor chip surface. After a 1 h preincubation at room temperature the various mixtures were then injected sequentially at a flow rate of 5 μl/min at 25° C. in HBS-EP buffer. The used peptides DDGYMPMSPGV (SEQ ID NO: 7), DDGpYMPMSPGV, DDGYMPMpSPGV and DDGpYMPMpSPGV, representing the amino acids 605 to 615 of rat IRS-1, were synthesized on an Applied Biosystems model 433 peptide synthesizer. All peptides were immobilized with a concentration of 5 mg/ml in 100 mM […] (NaOH pH 8.5) at 1 μl/min by standard amine coupling procedure as described by the manufacturer. Regeneration after each binding experiment was performed by injection of 6 M guanidine hydrochloride for 2 min. The kinetic analysis of the p85α with pY608 and […] interaction has been performed using the BIAevaluation 3.1 software (Biacore, Freiburg, Germany) and GraphPad Prism 3.0 (San Diego, Calif., USA).
The inventors then determined the relative binding affinity of this reaction by monitoring the binding of 100 nM p85α to the peptides pY608 (DDGpYMPMSPGV) and pY608-pS612 (DDGpYMPMpSPGV) in the presence of competing soluble peptides (FIGS. 6D, E, F). Half-maximum inhibitory concentrations (IC50) were obtained by plotting the SPR response 440 s after injection at equilibrium versus the log peptide concentration. […] Solubilized peptides inhibited binding of p85α to the immobilized peptides at micromolar concentrations. […] In order to identify additional PKC-ζ phosphorylation sites on rIRS-1^449-664 that might promote the inhibition of insulin-stimulated tyrosine phosphorylation in the in vitro system, rIRS-1^449-664 was incubated with PKC-ζ and separated by SDS-PAGE. Phosphorylated rIRS-1^449-664 was digested with trypsin and extracted from the gel. The peptides generated by digestion were resolved by two dimensional HPLC and the content of radioactivity in the fractions was monitored by Cerenkov counting. […] To separate comigrating peptides, radioactive fractions of each peak were pooled according to the elution profile and subjected to reversed phase (RP)-HPLC (FIG. 7B). […]

insulin receptor = target: T2, insulin receptor (Rattus norvegicus, UniProt P15127); experiment: In vitro phosphorylation assay: tyrosine phosphorylation of rIRS-1^449-664 by insulin receptor; type: biochemical; conditions: rIRS-1^449-664 preincubated with 0.5 μg PKC for 30 min; insulin-stimulated value set as 100%
T2 construct: from tissue; host or cells: rat liver
T2 sequence (P15127 27-759 limits assumed): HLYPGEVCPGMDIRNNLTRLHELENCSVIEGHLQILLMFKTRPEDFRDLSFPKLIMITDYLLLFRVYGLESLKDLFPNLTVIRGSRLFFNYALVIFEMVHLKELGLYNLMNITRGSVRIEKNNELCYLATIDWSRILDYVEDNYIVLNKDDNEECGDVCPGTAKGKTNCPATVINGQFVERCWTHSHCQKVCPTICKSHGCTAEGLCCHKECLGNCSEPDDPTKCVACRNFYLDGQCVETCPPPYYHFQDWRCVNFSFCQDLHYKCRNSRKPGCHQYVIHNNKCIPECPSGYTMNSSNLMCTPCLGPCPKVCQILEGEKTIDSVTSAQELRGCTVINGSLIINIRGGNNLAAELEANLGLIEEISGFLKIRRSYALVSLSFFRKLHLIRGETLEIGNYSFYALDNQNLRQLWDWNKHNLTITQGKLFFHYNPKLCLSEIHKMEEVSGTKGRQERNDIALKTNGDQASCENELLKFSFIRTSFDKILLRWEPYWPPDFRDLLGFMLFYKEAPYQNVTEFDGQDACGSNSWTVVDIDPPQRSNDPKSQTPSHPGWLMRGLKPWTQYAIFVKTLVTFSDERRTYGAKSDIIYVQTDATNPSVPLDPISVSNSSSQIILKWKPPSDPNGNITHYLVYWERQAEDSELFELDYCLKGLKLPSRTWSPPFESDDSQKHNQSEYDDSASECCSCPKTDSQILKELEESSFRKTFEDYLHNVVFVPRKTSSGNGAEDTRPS
Protocol: Rat liver was rapidly removed, immediately frozen in liquid nitrogen and processed as described (41). Briefly, 3.5 vol/wt of an ice-cold buffer consisting of 50 mM Hepes (pH 7.4), 1% Triton X-100 and 2× Complete Protease Inhibitors was added and the liver was homogenized using an Ultraturrax and a Potter-Elvehjem homogenizer, followed by centrifugation at 10,000×g for 10 min at 4° C. The resultant supernatant was slowly stirred at room temperature for 60 min, then again centrifuged at 100,000×g for 90 min at 4° C. The supernatant was then applied to an agarose-bound wheat germ agglutinin (WGA) column. The column was washed with 50 mM Hepes (pH 7.4), 0.1% Triton X-100, and bound glycoproteins were eluted from the WGA column with this buffer containing 0.3 M N-acetylglucoseamine.
For rIRS-1^449-664 phosphorylation by insulin receptor, […] of the WGA-purified glycoprotein fraction was preincubated for 30 min at 30° C. with 100 nM of insulin in a phosphorylation buffer containing 20 mM Hepes (pH 7.4), 1 mM DTT, 10 mM MgCl2, 100 μg/ml bovine serum albumin, 0.2 mM Na3VO4, 1.7 mM CaCl2, 0.6 mg/ml phosphatidylserine, and 0.5 μg/ml okadaic acid. Autophosphorylation was initiated by the addition of ATP at a concentration of 50 μM and continued for 10 min at 30° C. Substrate phosphorylations were initiated by addition of equal volumes of […] (1 μg) with or without pre-treatment (30 min) by the PKC isoforms in the same buffer in the presence of 50 μM ATP and was allowed to proceed for 10 min at 30° C. in a final volume of 50 μl. The reaction was terminated by the addition of 6× sample buffer (0.35 M Tris-HCl (pH 6.8), 10.28% (w/v) SDS, 36% (v/v) glycerol; 0.6 M DTT, 0.012% (w/v) bromphenol blue) and boiling for 5 min. Proteins were separated by SDS-PAGE and analyzed by immunodetection with an anti-phosphotyrosine antibody after transfer to nitrocellulose. Serine/threonine phosphorylation of rIRS-1^449-664 by different PKC isoforms was assessed by incubating 1 μg rIRS-1^449-664 with 0.5 μg PKC-rb or PKC-ζ in phosphorylation buffer for 30 min at 30° C. in the presence of 50 μM ATP plus 2 μCi [γ-^32P]ATP in a volume of 20 μl. Proteins were resolved by SDS-PAGE and the stained and dried gels were subjected to autoradiography. The extent of phosphate incorporation was determined by Cerenkov counting of excised fragments.
Proteins were separated by SDS-PAGE using 8-18% gradient gels followed by transfer to nitrocellulose in a semi-dry blotting apparatus. […] All blots were quantified using the Lumilmager software. Significance of reported differences was evaluated by using the null hypothesis and t statistics for unpaired data. […]

p85α [2] = target: T1, p85α; experiment: GST pull down assay: interaction of rIRS-1^449-664 with p85α; type: binding, bovine; conditions: rIRS-1^449-664 preincubated with 0.5 μg PKC for 30 min; insulin-stimulated value set as 100%
Protocol: In vitro phosphorylated rIRS-1^449-664 was incubated with glutathione sepharose beads on a rotator for 1 h at 4° C. Pellets were washed three times with binding buffer (50 mM Tris (pH 7.4), 150 mM NaCl, 1% (v/v) Nonidet P-40, 1 mM EDTA, 1 mM NaF, 1 mM Na3VO4). Then 0.5 μg recombinant p85α was added and incubation was continued for 2 h at 4° C. After three times washing, the bound proteins were eluted with 20 μl of 2× sample buffer and separated by SDS-PAGE.
Proteins were separated by SDS-PAGE using 8-18% gradient gels followed by transfer to nitrocellulose in a semi-dry blotting apparatus. The membrane was then blocked 60 min in Tris-buffered saline containing 0.05% Tween 20 and 1% BSA or 5% non fat dry milk and probed with appropriate antibodies (anti-IRS-1, anti-pTyr, anti-p85α). After extensive washing, the membranes were incubated with horseradish peroxidase-conjugated secondary antibodies, again washed and then the protein bands were visualized by the enhanced chemiluminescence (ECL) method on a Lumilmager workstation (Boehringer, Mannheim, Germany). All blots were quantified using the Lumilmager software. Significance of reported differences was evaluated by using the null hypothesis and t statistics for unpaired data. A p value less than 0.05 was considered to be statistically significant.

IR β-subunit = target: T3, IR β-subunit (Rattus norvegicus, UniProt P15127); experiment: Autophosphorylation of IR β-subunit in the presence of PKC isoforms; type: biochemical; conditions: autoactivated receptor incubated 10 min at 30° C. with PKC
T3 construct: from tissue; host or cells: rat liver
T3 sequence (P15127 27-759 limits assumed): as above
Protocol: (A) Autophosphorylation of IR was conducted as outlined in FIG. 2. Either PKC-rb or PKC-ζ was added after 10 min of autophosphorylation and incubation was continued for another 10 min. Tyrosine phosphorylation of IR β-subunit was then analyzed by immunoblotting. (B) Quantification of blots was obtained using Lumi Imager software. Data are mean values±SEM (n=4-6).
For rIRS-1^449-664 phosphorylation by insulin receptor, […] of the WGA-purified glycoprotein fraction was preincubated for 30 min at 30° C. with 100 nM of insulin in a phosphorylation buffer containing 20 mM Hepes (pH 7.4), 1 mM DTT, 10 mM MgCl2, 100 μg/ml bovine serum albumin, 0.2 mM Na3VO4, 1.7 mM CaCl2, 0.6 mg/ml phosphatidylserine, and 0.5 μg/ml okadaic acid. Autophosphorylation was initiated by the addition of ATP at a concentration of 50 μM and continued for 10 min at 30° C. […] Proteins were separated by SDS-PAGE and analyzed by immunodetection with an anti-phosphotyrosine antibody after transfer to nitrocellulose. Serine/threonine phosphorylation of rIRS-1^449-664 by different PKC isoforms was assessed by incubating 1 μg rIRS-1^449-664 with 0.5 μg PKC-rb or PKC-ζ in phosphorylation buffer for 30 min at 30° C. in the presence of 50 μM ATP plus 2 μCi [γ-^32P]ATP in a volume of 20 μl. […] The extent of phosphate incorporation was determined by Cerenkov counting of excised fragments.

[3] = read-out: IC50, inhibition of p85α binding by soluble peptide, two site competition fit, first value
[4] = read-out: IC50, inhibition of p85α binding by soluble peptide, two site competition fit, second value

Row | IC50 (p85α [1]; [3]) | IC50 (p85α [1]; [4]) | Reduction of insulin-stimulated tyrosine phosphorylation of rIRS-1^449-664 by PKC pretreatment (insulin receptor) | Inhibition of p85α association with rIRS-1^449-664 by PKC pretreatment (p85α [2]) | Alteration of IR autophosphorylation compared to controls (IR β-subunit) | Molecule
1 | 0.26 µM | 16.6 µM |  |  |  | CSCC[C@H](NC(=O)[C@@H]1CCCN1C(=O)[C@H](CCSC)NC(=O)[C@H](Cc1ccc(OP(=O)(O)O)cc1)NC(=O)CNC(=O)[C@H](CC(=O)O)NC(=O)[C@@H](N)CC(=O)O)C(=O)N[C@@H](CO)C(=O)N1CCC[C@H]1C(=O)NCC(=O)N[C@H](C(=O)O)C(C)C [pY608, DDGpYMPMSPGV] (H-DDG[pY]MPMSPGV-OH; N-terminus and C-terminus assumed)
2 | 0.15 µM | 2.88 µM |  |  |  | CSCC[C@H](NC(=O)[C@@H]1CCCN1C(=O)[C@H](CCSC)NC(=O)[C@H](Cc1ccc(OP(=O)(O)O)cc1)NC(=O)CNC(=O)[C@H](CC(=O)O)NC(=O)[C@@H](N)CC(=O)O)C(=O)N[C@@H](COP(=O)(O)O)C(=O)N1CCC[C@H]1C(=O)NCC(=O)N[C@H](C(=O)O)C(C)C [pY608-pS612, DDGpYMPMpSPGV] (H-DDG[pY]MPM[pS]PGV-OH)
3 |  |  | 46±5% | 81±1% | No significant alteration | B1

— patent US7803571B2, “Method for identifying IRS inhibitors or agonists” (Sanfoi-Aventis Deutschland GmbH, priority 2003, dated 2010)
